Holding throughout (format): physicochemical
Series [1] in a line: Example 1: degree of browning (chromaticity) on storage with added glycine. As to conditions: 1.5% solution, room temperature. Here is the method:
(Effect of addition of ascorbic acid 2-glucoside arginine salt on change in degree of browning (chromaticity) of ascorbic acid by addition of amino acid) 100 ml of water was taken to dissolve 1.5% of ascorbic acid (ASA), and the solution was adjusted to pH 5.0 with a 1M of sodium hydroxide solution to obtain a test solution. Ascorbic acid 2-glucoside arginine salt (ASA2-G⋅Arg) is used as a test solution by dissolving 1.5% of the product of Production Example 1 in 100 ml of water. To each test solution, 0.2% glycine was added and dissolved to prepare a solution, and the solution was stored (at room temperature) for 20 months. This test solution was collected every designated month, the absorption spectrum (wavelength: 480 nm) was measured, the degree of browning (chromaticity) was evaluated, and the results are shown in FIG. 3.
At time 0, the initial state immediately after the preparation was visually observed. In the other designated months, a spectrophotometer (absorption spectrum: wavelength 480 nm) was used for the measurement. In the case of ascorbic acid, browning started to occur at 4 months, transparency was visually observed, and light brown color remarkably appeared at 14 months. Meanwhile, in the ASA2-G⋅Arg added system, the initial state was confirmed.

A short description of series [2]: Example 2: degree of browning (chromaticity) on storage with added amino acid mixture. Conditions: 4% solution, room temperature. Here is the method: 4% of ascorbic acid (ASA) is dissolved in 200 ml of water, and the solution is adjusted to pH 5.0 with a 1M sodium hydroxide solution to obtain a test solution. Ascorbic acid 2-glucoside lysine salt (ASA2-G⋅Lys) (Production Example 2) is dissolved in the same manner by 4% to prepare a test solution. An amino acid mixture (histidine 1.5%, alanine 1.28, leucine 2.6%) was added to and dissolved in each test solution, and the solution was stored (at room temperature) for 20 months. Each test solution was collected every designated month, the absorption spectrum (wavelength: 480 nm) was measured, the degree of browning (chromaticity) was evaluated, and the results are shown in FIG. 4.

Series [3] can be described thus: Test system: browning of ascorbic acid caused by addition of an amino acid. Conditions: 10 days after production. The method, then: For a reaction solution of ascorbic acid (1%) and amino acid (0.12%), the difference in degree of browning (chromaticity) based on the type of amino acid was examined for a 10 mM of phosphate citrate buffer solution pH 7.0. • Measurement wavelength: 480 nm, measurement time: 10 days after production

Where a name gives a salt, the structure may show the parent alone.

With `O=C1OC([C@@H](O)CO)C(O)=C1OC1O[C@H](CO)[C@@H](O)[C@H](O)[C@H]1O` (stereo partly shown) [ASA2-G⋅Arg, ascorbic acid 2-glucoside arginine salt], the “appearance (transparency), visual observation” value in series [1] (0.2% glycine, 20 months) was “initial state”. In addition, the “absorbance (Abs) in the absorption spectrum” value in series [1] (480 nm, 0.2% glycine, 20 months) is 0.01.
In the case of `O=C1OC([C@@H](O)CO)C(O)=C1OC1O[C@H](CO)[C@@H](O)[C@H](O)[C@H]1O` (stereo partly shown) [ASA2-G⋅Lys, ascorbic acid 2-glucoside lysine salt], the “appearance (color)” value in series [2] (amino acid mixture, 20 months) is “extremely light reddish brown color”. Moreover, in series [2] (480 nm, amino acid mixture, 20 months), the “absorbance (Abs) of the absorption spectrum” value is 0.017.
Regarding `O=C1O[C@H]([C@@H](O)CO)C(O)=C1O` [ascorbic acid, (R)-3,4-dihydroxy-5-((S)-1,2-dihydroxyethyl) furan-2 (5H)-one], the “degree of browning (chromaticity)” value in series [3] (ascorbic acid 1% + amino acid 0.12% (glycine, histidine, lysine or alanine), 10 mM phosphate citrate buffer pH 7.0, 480 nm) is given as “high”. In addition, the degree of browning result in series [3] (ascorbic acid 1% + glycine or histidine 0.12%, pH 7.0, 480 nm) was “remarkable”. In addition, in series [1] (pH 5.0, 0.2% glycine), the “time at which browning started to occur” value came out at 4 months and the “time at which light brown color remarkably appeared” value is 14 months. In addition, the “appearance (color)” value in series [2] (amino acid mixture, 20 months) is reported as “reddish brown color”. In series [2] (pH 5.0, amino acid mixture (histidine, alanine, leucine)), the “time after which browning appeared” value amounted to 4 months.

Source of the values: patent publication US20250017841A1, “COMPOUND CONTAINING ASCORBIC ACID DERIVATIVE” (DR'S CHOICE CO., LTD., priority 2021, published 2025).
